Results on 18 molecules are retold here after patent US8785452B2, “Anti-infective compounds” (priority 2008, dated 2014).

The first series has as its system Raw264.7 cells.
Test: not given
To be noted: mouse, 5 days, 20 μM.
Turning to `O=S(=O)(Nc1nccs1)c1ccc(/N=C/c2ccccc2O)cc1` [IPK 000 079 88], the “Primary QIM CellNb” value was determined as 7.5.

As to `COc1ccccc1/C=N/NC(=O)c1ccncc1` [IPK 000 043 01], the “Primary QIM CellNb” value came out at 103.6.

Turning to `COc1cccc(/C=N/NC(=O)c2ccncc2)c1O` [IPK 000 043 08], the “Primary QIM CellNb” value is listed as 102.7.

In the case of `O=C(N/N=C/c1cccs1)c1ccncc1` [IPK 000 043 33], the “Primary QIM CellNb” value amounted to 94.5.

With `O=C(N/N=C/c1ccc(O)cc1)c1ccncc1` [IPK 000 043 07], the “Primary QIM CellNb” value was 102.5.

Take `CCN(CC)c1ccc(/C=N/NC(=O)c2cccs2)c(O)c1` [IPK 000 103 76]: the “Primary QIM CellNb” value was −1.7.

Consider `CCOc1ccc(/C=N/NC(=O)c2ccncc2)cc1` [IPK 000 041 49], for which the “Primary QIM CellNb” value is on record as 102.3.

In the case of `Cc1nn(C)cc1/C=N/NC(=O)c1ccncc1` [IPK 000 079 13], the “Primary QIM CellNb” value is 97.8.

Regarding `CC(NC(=O)c1cccc(Cl)c1)c1ccccc1` (stereo not drawn) [IPK 000 067 51], the “Primary QIM CellNb” value was determined as 17.9.

In the case of `O=C(N/N=C/c1ccc(Br)cc1)c1ccncc1` [IPK 000 041 51], the “Primary QIM CellNb” value is on record as 102.9.

With `O=C(N/N=C/c1ccc(Cl)cc1)c1ccncc1` [IPK 000 041 53], the “Primary QIM CellNb” value is 98.1.

Take `O=C(Nc1cc(Cl)cc(Cl)c1)c1ccc([N+](=O)[O-])cc1Cl` [IPK 000 049 03]: the “Primary QIM CellNb” value was found to be 56.0.

Consider `CCOc1nnc(NS(=O)(=O)c2ccc(/N=C/c3ccccc3O)cc2)s1` [IPK 000 080 01], for which the “Primary QIM CellNb” value was 27.4.

With `CCOC(=O)CSc1nc(N)c(C(=O)Nc2ccc(N(C)C)cc2)s1` [IPK 000 105 70], the “Primary QIM CellNb” value was 4.7.

`COc1cc(Br)cc(/C=N/NC(=O)c2ccncc2)c1O` [IPK 000 079 15]: the “Primary QIM CellNb” value is recorded as 90.5.

Regarding `Cc1ccc(/C=N/NC(=O)c2ccncc2)cc1` [IPK 000 041 50], the “Primary QIM CellNb” value is on record as 102.2.

For `CCCCOc1ccc(/C=N/NC(=O)c2ccncc2)cc1` [IPK 000 043 06], the “Primary QIM CellNb” value is reported as 98.1.

On to `CCCCc1ccc(C(=O)Nc2ccc(Br)cn2)cc1` [IPK 000 105 47], for which the “Primary QIM CellNb” value came out at 68.1.

Another series has as its system Raw264.7 cells. Briefly: Cell number (CellNb) from image analysis of the phenotypic cell-based assay. To be noted: primary screen, 20 μM.
Turning to `O=S(=O)(Nc1nccs1)c1ccc(/N=C/c2ccccc2O)cc1` [IPK 000 079 88], the “Primary QIM CellNb” value is reported as 181.8.

Regarding `COc1ccccc1/C=N/NC(=O)c1ccncc1` [IPK 000 043 01], the “Primary QIM CellNb” value was found to be 287.8.

Consider `COc1cccc(/C=N/NC(=O)c2ccncc2)c1O` [IPK 000 043 08], for which the “Primary QIM CellNb” value is reported as 255.5.

On to `O=C(N/N=C/c1cccs1)c1ccncc1` [IPK 000 043 33], for which the “Primary QIM CellNb” value came to 270.8.

In the case of `O=C(N/N=C/c1ccc(O)cc1)c1ccncc1` [IPK 000 043 07], the “Primary QIM CellNb” value is 303.5.

Take `CCN(CC)c1ccc(/C=N/NC(=O)c2cccs2)c(O)c1` [IPK 000 103 76]: the “Primary QIM CellNb” value was 47.8.

Consider `CCOc1ccc(/C=N/NC(=O)c2ccncc2)cc1` [IPK 000 041 49], for which the “Primary QIM CellNb” value turned out to be 336.5.

Take `Cc1nn(C)cc1/C=N/NC(=O)c1ccncc1` [IPK 000 079 13]: the “Primary QIM CellNb” value was 294.0.

`CC(NC(=O)c1cccc(Cl)c1)c1ccccc1` (stereo not drawn) [IPK 000 067 51]: the “Primary QIM CellNb” value came to 142.3.

As to `O=C(N/N=C/c1ccc(Br)cc1)c1ccncc1` [IPK 000 041 51], the “Primary QIM CellNb” value is given as 351.3.

In the case of `O=C(N/N=C/c1ccc(Cl)cc1)c1ccncc1` [IPK 000 041 53], the “Primary QIM CellNb” value is given as 426.8.

Take `O=C(Nc1cc(Cl)cc(Cl)c1)c1ccc([N+](=O)[O-])cc1Cl` [IPK 000 049 03]: the “Primary QIM CellNb” value was 205.3.

For the molecule `CCOc1nnc(NS(=O)(=O)c2ccc(/N=C/c3ccccc3O)cc2)s1` [IPK 000 080 01], the “Primary QIM CellNb” value turned out to be 409.8.

For `CCOC(=O)CSc1nc(N)c(C(=O)Nc2ccc(N(C)C)cc2)s1` [IPK 000 105 70], the “Primary QIM CellNb” value is reported as 315.5.

As for `COc1cc(Br)cc(/C=N/NC(=O)c2ccncc2)c1O` [IPK 000 079 15], the “Primary QIM CellNb” value was determined as 383.3.

On to `Cc1ccc(/C=N/NC(=O)c2ccncc2)cc1` [IPK 000 041 50], for which the “Primary QIM CellNb” value is listed as 296.3.

As to `CCCCOc1ccc(/C=N/NC(=O)c2ccncc2)cc1` [IPK 000 043 06], the “Primary QIM CellNb” value worked out at 200.3.

For `CCCCc1ccc(C(=O)Nc2ccc(Br)cn2)cc1` [IPK 000 105 47], the “Primary QIM CellNb” value came out at 125.8.

In another series the test system is M. tuberculosis H37Rv-GFP. The series is described as follows: microbe, parasite or virus in culture. It is filed as cell-based, Mycobacterium tuberculosis. To be noted: Mycobacterium tuberculosis, H37RV, Macrophage; confirmation, 20 uM; read-out: QIM Confirm % Inhibition 20 uM.
Regarding `O=S(=O)(Nc1nccs1)c1ccc(/N=C/c2ccccc2O)cc1` [IPK 000 079 88], the inhibition (commonly the drop in the measured response relative to a control, in per cent) at 20 µM was found to be 28.1%.

With `COc1ccccc1/C=N/NC(=O)c1ccncc1` [IPK 000 043 01], the inhibition at 20 µM was 103%.

On to `COc1cccc(/C=N/NC(=O)c2ccncc2)c1O` [IPK 000 043 08], for which the inhibition at 20 µM is 95.1%.

Regarding `O=C(N/N=C/c1cccs1)c1ccncc1` [IPK 000 043 33], the inhibition at 20 µM is 104%.

As for `O=C(N/N=C/c1ccc(O)cc1)c1ccncc1` [IPK 000 043 07], the inhibition at 20 µM is 98.6%.

For `CCN(CC)c1ccc(/C=N/NC(=O)c2cccs2)c(O)c1` [IPK 000 103 76], the inhibition at 20 µM stood at 74.5%.

As to `CCOc1ccc(/C=N/NC(=O)c2ccncc2)cc1` [IPK 000 041 49], the inhibition at 20 µM stood at 94.5%.

Regarding `Cc1nn(C)cc1/C=N/NC(=O)c1ccncc1` [IPK 000 079 13], the inhibition at 20 µM is 102%.

For `CC(NC(=O)c1cccc(Cl)c1)c1ccccc1` (stereo not drawn) [IPK 000 067 51], the inhibition at 20 µM came out at 73.2%.

Take `O=C(N/N=C/c1ccc(Br)cc1)c1ccncc1` [IPK 000 041 51]: the inhibition at 20 µM amounted to 94%.

Regarding `O=C(N/N=C/c1ccc(Cl)cc1)c1ccncc1` [IPK 000 041 53], the inhibition at 20 µM stood at 97%.

As for `O=C(Nc1cc(Cl)cc(Cl)c1)c1ccc([N+](=O)[O-])cc1Cl` [IPK 000 049 03], the inhibition at 20 µM came to 48.6%.

For `CCOc1nnc(NS(=O)(=O)c2ccc(/N=C/c3ccccc3O)cc2)s1` [IPK 000 080 01], the inhibition at 20 µM was 56.6%.

Take `CCOC(=O)CSc1nc(N)c(C(=O)Nc2ccc(N(C)C)cc2)s1` [IPK 000 105 70]: the inhibition at 20 µM was 84.6%.

Consider `COc1cc(Br)cc(/C=N/NC(=O)c2ccncc2)c1O` [IPK 000 079 15], for which the inhibition at 20 µM was 97.9%.

For the molecule `Cc1ccc(/C=N/NC(=O)c2ccncc2)cc1` [IPK 000 041 50], the inhibition at 20 µM came to 90.8%.

Turning to `CCCCOc1ccc(/C=N/NC(=O)c2ccncc2)cc1` [IPK 000 043 06], the inhibition at 20 µM came out at 98%.

`CCCCc1ccc(C(=O)Nc2ccc(Br)cn2)cc1` [IPK 000 105 47]: the inhibition at 20 µM amounted to 50.7%.

The same series, now with this note: Mycobacterium tuberculosis, H37RV, Macrophage; primary screen, 20 μM; read-out: Primary QIM % Inhibition.
Regarding `O=S(=O)(Nc1nccs1)c1ccc(/N=C/c2ccccc2O)cc1` [IPK 000 079 88], the inhibition at 20 µM was -69.2%.

For `COc1ccccc1/C=N/NC(=O)c1ccncc1` [IPK 000 043 01], the inhibition at 20 µM was determined as 86.6%.

On to `COc1cccc(/C=N/NC(=O)c2ccncc2)c1O` [IPK 000 043 08], for which the inhibition at 20 µM came out at 87.3%.

Turning to `O=C(N/N=C/c1cccs1)c1ccncc1` [IPK 000 043 33], the inhibition at 20 µM is 83%.

For the molecule `O=C(N/N=C/c1ccc(O)cc1)c1ccncc1` [IPK 000 043 07], the inhibition at 20 µM came to 104%.

For the molecule `CCN(CC)c1ccc(/C=N/NC(=O)c2cccs2)c(O)c1` [IPK 000 103 76], the inhibition at 20 µM stood at 85.7%.

`CCOc1ccc(/C=N/NC(=O)c2ccncc2)cc1` [IPK 000 041 49]: the inhibition at 20 µM stood at 83.8%.

On to `Cc1nn(C)cc1/C=N/NC(=O)c1ccncc1` [IPK 000 079 13], for which the inhibition at 20 µM worked out at 69.6%.

Regarding `CC(NC(=O)c1cccc(Cl)c1)c1ccccc1` (stereo not drawn) [IPK 000 067 51], the inhibition at 20 µM is 75.2%.

Turning to `O=C(N/N=C/c1ccc(Br)cc1)c1ccncc1` [IPK 000 041 51], the inhibition at 20 µM is 89%.

Turning to `O=C(N/N=C/c1ccc(Cl)cc1)c1ccncc1` [IPK 000 041 53], the inhibition at 20 µM worked out at 100%.

Take `O=C(Nc1cc(Cl)cc(Cl)c1)c1ccc([N+](=O)[O-])cc1Cl` [IPK 000 049 03]: the inhibition at 20 µM was determined as 62.6%.

Consider `CCOc1nnc(NS(=O)(=O)c2ccc(/N=C/c3ccccc3O)cc2)s1` [IPK 000 080 01], for which the inhibition at 20 µM is 14.3%.

Regarding `CCOC(=O)CSc1nc(N)c(C(=O)Nc2ccc(N(C)C)cc2)s1` [IPK 000 105 70], the inhibition at 20 µM was determined as 61.2%.

Consider `COc1cc(Br)cc(/C=N/NC(=O)c2ccncc2)c1O` [IPK 000 079 15], for which the inhibition at 20 µM stood at 82.4%.

Take `Cc1ccc(/C=N/NC(=O)c2ccncc2)cc1` [IPK 000 041 50]: the inhibition at 20 µM was found to be 81.6%.

As to `CCCCOc1ccc(/C=N/NC(=O)c2ccncc2)cc1` [IPK 000 043 06], the inhibition at 20 µM was 81.4%.

On to `CCCCc1ccc(C(=O)Nc2ccc(Br)cn2)cc1` [IPK 000 105 47], for which the inhibition at 20 µM was determined as 60.1%.
